{"source": "patent US6737383B1", "about": "“Herbicidal oxadiazolidines” (priority 1999, dated 2004)", "key": {"[1]": {"system": "morningglory", "assay": "Test B pre/postemergence morningglory", "assay_type": "in vivo, Ipomoea hederacea", "summary_of_the_method": "(§1)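 Herbicidal effect was estimated by eye on a ten-point control scale after plants spent twelve to sixteen days in a greenhouse following soil or foliar treatment. Foliar sprays targeted plants at one to four leaves; all doses were formulated in a non-phytotoxic solvent with surfactant.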"}, "[2]": {"system": "cocklebur", "assay": "Test B pre/postemergence cocklebur", "assay_type": "in vivo, Xanthium strumarium", "summary_of_the_method": "as §1"}, "[3]": {"system": "surinam grass", "assay": "Test B pre/postemergence surinam grass", "assay_type": "in vivo, Brachiaria decumbens", "summary_of_the_method": "as §1"}, "[4]": {"system": "crabgrass", "assay": "Test B pre/postemergence crabgrass", "assay_type": "in vivo, Digitaria sanguinalis", "summary_of_the_method": "as §1"}, "[5]": {"system": "soybean", "assay": "Test B pre/postemergence soybean", "assay_type": "in vivo, Glycine max", "summary_of_the_method": "as §1"}, "[6]": {"system": "wheat", "assay": "Test B pre/postemergence wheat", "assay_type": "in vivo, Triticum aestivum", "summary_of_the_method": "as §1"}, "[7]": {"system": "purple nutsedge", "assay": "Test B pre/postemergence purple nutsedge", "assay_type": "in vivo, Cyperus rotundus", "summary_of_the_method": "as §1"}, "[8]": {"system": "rape", "assay": "Test B pre/postemergence rape", "assay_type": "in vivo, Brassica napus", "summary_of_the_method": "as §1"}, "[9]": {"system": "pigweed", "assay": "Test B pre/postemergence pigweed", "assay_type": "in vivo, Amaranthus retroflexus", "summary_of_the_method": "as §1"}, "[10]": {"system": "velvetleaf", "assay": "Test B pre/postemergence velvetleaf", "assay_type": "in vivo, Abutilon theophrasti", "summary_of_the_method": "as §1"}, "[11]": {"system": "sugar beet", "assay": "Test B pre/postemergence sugar beet", "assay_type": "in vivo, Beta vulgaris", "summary_of_the_method": "as §1"}, "[12]": {"system": "bedstraw", "assay": "Test B pre/postemergence bedstraw", "assay_type": "in vivo, Galium aparine", "details": "Postemergence, Rate 250 g/ha; scale of 0 to 10, 0 is no effect, 10 is complete control", "summary_of_the_method": "as §1"}, "[13]": {"system": "giant foxtail", "assay": "Test B pre/postemergence giant foxtail", "assay_type": "in vivo, Setaria faberii", "summary_of_the_method": "as §1"}, "[14]": {"system": "duck salad", "assay": "Test B flood test duck salad", "assay_type": "in vivo, Heteranthera limosa", "summary_of_the_method": "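Flood test on plants grown to the 2-leaf stage; treated plants kept in greenhouse twelve to sixteen days, then visually rated against controls on a 0 (no effect) to 10 (complete control) scale.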"}, "[15]": {"system": "corn", "assay": "Test B pre/postemergence corn", "assay_type": "in vivo, Zea mays", "summary_of_the_method": "as §1"}, "[16]": {"details": "Postemergence, Rate 62 g/ha, scale 0 to 10, 0 is no effect, 10 is complete control"}, "[17]": {"details": "Postemergence, Rate 125 g/ha, scale of 0 to 10 where 0 is no effect and 10 is complete control"}, "[18]": {"details": "Postemergence, Rate 250 g/ha, scale of 0 to 10, 0 is no effect, 10 is complete control"}, "[19]": {"details": "Preemergence, Rate 62 g/ha, scale of 0 to 10 where 0 is no effect and 10 is complete control"}, "[20]": {"details": "Preemergence, Rate 125 g/ha, scale of 0 to 10 where 0 is no effect and 10 is complete control"}, "[21]": {"details": "Preemergence, Rate 250 g/ha, scale 0 to 10 (0 no effect, 10 complete control)"}, "[22]": {"details": "Preemergence, Rate 500 g/ha, scale of 0 to 10 where 0 is no effect and 10 is complete control"}, "[23]": {"details": "Rate 500 g/ha, Postemergence, scale 0 to 10, 0 is no effect, 10 is complete control"}}, "data": [{"smiles": "C#CC(C)n1c(=O)on(C(=O)N(c2ccc(Cl)cc2)C(C)C)c1=O", "note": "(racemic) [Compound 658]", "values": [{"measurement": "Plant response rating, Morningglory", "setting": "[1]; [16]", "result": 7}, {"measurement": "Morningglory plant response rating", "setting": "[1]; [17]", "result": 7}, {"measurement": "Morningglory plant response rating", "setting": "[1]; [18]", "result": 7}, {"measurement": "Morningglory plant response rating", "setting": "[1]; [19]", "result": 0}, {"measurement": "Morningglory plant response rating", "setting": "[1]; [20]", "result": 0}, {"measurement": "Plant response rating, Morningglory", "setting": "[1]; [21]", "result": 0}, {"measurement": "Plant response rating, Morningglory", "setting": "[1]; [22]", "result": 0}, {"measurement": "Morningglory plant response rating", "setting": "[1]; [23]", "result": 10}, {"measurement": "Plant response rating, Cocklebur", "setting": "[2]; [16]", "result": 0}, {"measurement": "Cocklebur plant response rating", "setting": "[2]; [17]", "result": 0}, {"measurement": "Cocklebur plant response rating", "setting": "[2]; [18]", "result": 2}, {"measurement": "Cocklebur plant response rating", "setting": "[2]; [19]", "result": 0}, {"measurement": "Cocklebur plant response rating", "setting": "[2]; [20]", "result": 0}, {"measurement": "Plant response rating, Cocklebur", "setting": "[2]; [21]", "result": 0}, {"measurement": "Plant response rating, Cocklebur", "setting": "[2]; [22]", "result": 0}, {"measurement": "Cocklebur plant response rating", "setting": "[2]; [23]", "result": 5}, {"measurement": "Plant response rating, B. signalgrass", "setting": "[3]; [16]", "result": 0}, {"measurement": "Plant response rating, B. signalgrass", "setting": "[3]; [17]", "result": 0}, {"measurement": "B. signalgrass plant response rating", "setting": "[3]; [18]", "result": 0}, {"measurement": "B. signalgrass plant response rating", "setting": "[3]; [19]", "result": 0}, {"measurement": "B. signalgrass plant response rating", "setting": "[3]; [20]", "result": 0}, {"measurement": "Plant response rating, B. signalgrass", "setting": "[3]; [21]", "result": 8}, {"measurement": "Plant response rating, B. signalgrass", "setting": "[3]; [22]", "result": 8}, {"measurement": "B. signalgrass plant response rating", "setting": "[3]; [23]", "result": 0}, {"measurement": "Plant response rating, Crabgrass", "setting": "[4]; [16]", "result": 0}, {"measurement": "Crabgrass plant response rating", "setting": "[4]; [17]", "result": 2}, {"measurement": "Crabgrass plant response rating", "setting": "[4]; [18]", "result": 2}, {"measurement": "Crabgrass plant response rating", "setting": "[4]; [19]", "result": 3}, {"measurement": "Crabgrass plant response rating", "setting": "[4]; [20]", "result": 7}, {"measurement": "Plant response rating, Crabgrass", "setting": "[4]; [21]", "result": 8}, {"measurement": "Plant response rating, Crabgrass", "setting": "[4]; [22]", "result": 9}, {"measurement": "Plant response rating, Soybean", "setting": "[5]; [16]", "result": 2}, {"measurement": "Soybean plant response rating", "setting": "[5]; [17]", "result": 4}, {"measurement": "Soybean plant response rating", "setting": "[5]; [19]", "result": 0}, {"measurement": "Soybean plant response rating", "setting": "[5]; [20]", "result": 0}, {"measurement": "Plant response rating, Soybean", "setting": "[5]; [21]", "result": 0}, {"measurement": "Plant response rating, Soybean", "setting": "[5]; [22]", "result": 3}, {"measurement": "Soybean plant response rating", "setting": "[5]; [23]", "result": 4}, {"measurement": "Plant response rating, Wheat", "setting": "[6]; [16]", "result": 0}, {"measurement": "Wheat plant response rating", "setting": "[6]; [17]", "result": 0}, {"measurement": "Wheat plant response rating", "setting": "[6]; [19]", "result": 0}, {"measurement": "Wheat plant response rating", "setting": "[6]; [20]", "result": 0}, {"measurement": "Plant response rating, Wheat", "setting": "[6]; [21]", "result": 0}, {"measurement": "Plant response rating, Wheat", "setting": "[6]; [22]", "result": 3}, {"measurement": "Wheat plant response rating", "setting": "[6]; [23]", "result": 0}, {"measurement": "Plant response rating, Nutsedge", "setting": "[7]; [16]", "result": 0}, {"measurement": "Nutsedge plant response rating", "setting": "[7]; [17]", "result": 0}, {"measurement": "Nutsedge plant response rating", "setting": "[7]; [19]", "result": 0}, {"measurement": "Nutsedge plant response rating", "setting": "[7]; [20]", "result": 0}, {"measurement": "Plant response rating, Nutsedge", "setting": "[7]; [21]", "result": 0}, {"measurement": "Plant response rating, Nutsedge", "setting": "[7]; [22]", "result": 2}, {"measurement": "Nutsedge plant response rating", "setting": "[7]; [23]", "result": 2}, {"measurement": "Plant response rating, Rape", "setting": "[8]; [16]", "result": 0}, {"measurement": "Rape plant response rating", "setting": "[8]; [17]", "result": 0}, {"measurement": "Rape plant response rating", "setting": "[8]; [19]", "result": 2}, {"measurement": "Rape plant response rating", "setting": "[8]; [20]", "result": 5}, {"measurement": "Plant response rating, Rape", "setting": "[8]; [21]", "result": 5}, {"measurement": "Plant response rating, Rape", "setting": "[8]; [22]", "result": 8}, {"measurement": "Rape plant response rating", "setting": "[8]; [23]", "result": 3}, {"measurement": "Plant response rating, Redroot pigweed", "setting": "[9]; [16]", "result": 6}, {"measurement": "Redroot pigweed plant response rating", "setting": "[9]; [17]", "result": 6}, {"measurement": "Redroot pigweed plant response rating", "setting": "[9]; [19]", "result": 2}, {"measurement": "Redroot pigweed plant response rating", "setting": "[9]; [20]", "result": 9}, {"measurement": "Plant response rating, Redroot pigweed", "setting": "[9]; [21]", "result": 9}, {"measurement": "Plant response rating, Redroot pigweed", "setting": "[9]; [22]", "result": 10}, {"measurement": "Redroot pigweed plant response rating", "setting": "[9]; [23]", "result": 7}, {"measurement": "Plant response rating, Velvetleaf", "setting": "[10]; [16]", "result": 0}, {"measurement": "Velvetleaf plant response rating", "setting": "[10]; [17]", "result": 0}, {"measurement": "Velvetleaf plant response rating", "setting": "[10]; [19]", "result": 0}, {"measurement": "Velvetleaf plant response rating", "setting": "[10]; [20]", "result": 0}, {"measurement": "Plant response rating, Velvetleaf", "setting": "[10]; [21]", "result": 3}, {"measurement": "Plant response rating, Velvetleaf", "setting": "[10]; [22]", "result": 5}, {"measurement": "Velvetleaf plant response rating", "setting": "[10]; [23]", "result": 6}, {"measurement": "Plant response rating, Sugarbeets", "setting": "[11]; [16]", "result": 0}, {"measurement": "Sugarbeets plant response rating", "setting": "[11]; [17]", "result": 0}, {"measurement": "Sugarbeets plant response rating", "setting": "[11]; [19]", "result": 3}, {"measurement": "Sugarbeets plant response rating", "setting": "[11]; [20]", "result": 7}, {"measurement": "Plant response rating, Sugarbeets", "setting": "[11]; [21]", "result": 6}, {"measurement": "Plant response rating, Sugarbeets", "setting": "[11]; [22]", "result": 7}, {"measurement": "Sugarbeets plant response rating", "setting": "[11]; [23]", "result": 2}, {"measurement": "Bedstraw plant response rating", "setting": "[12]", "result": 0}, {"measurement": "Plant response rating, Giant foxtail", "setting": "[13]; [16]", "result": 0}, {"measurement": "Giant foxtail plant response rating", "setting": "[13]; [17]", "result": 3}, {"measurement": "Giant foxtail plant response rating", "setting": "[13]; [18]", "result": 7}, {"measurement": "Giant foxtail plant response rating", "setting": "[13]; [19]", "result": 9}, {"measurement": "Giant foxtail plant response rating", "setting": "[13]; [20]", "result": 9}, {"measurement": "Plant response rating, Giant foxtail", "setting": "[13]; [21]", "result": 9}, {"measurement": "Plant response rating, Giant foxtail", "setting": "[13]; [22]", "result": 10}, {"measurement": "Giant foxtail plant response rating", "setting": "[13]; [23]", "result": 6}, {"measurement": "Plant response rating, Ducksalad (0 to 10 scale, 0 is no effect, 10 is complete control)", "setting": "[14]; Rate 62 g/ha, flood test species, Pre-emergence, visual evaluation after twelve to sixteen days", "result": 0}, {"measurement": "Ducksalad plant response rating (0 to 10 scale, 0 is no effect, 10 is complete control)", "setting": "[14]; Rate 125 g/ha, under heading Pre-emergence, flood test species, visual evaluation after twelve to sixteen days", "result": 0}, {"measurement": "Ducksalad plant response rating", "setting": "[14]; Rate 250 g/ha, Pre-emergence (flood test species), scale 0 to 10, 0 is no effect, 10 is complete control", "result": 0}, {"measurement": "Ducksalad plant response rating", "setting": "[14]; Rate 500 g/ha, Pre-emergence section of Table B, 0 to 10 scale (0 no effect, 10 complete control)", "result": 0}, {"measurement": "Plant response rating, Corn", "setting": "[15]; [16]", "result": 0}, {"measurement": "Corn plant response rating", "setting": "[15]; [17]", "result": 0}, {"measurement": "Corn plant response rating", "setting": "[15]; [18]", "result": 0}, {"measurement": "Corn plant response rating", "setting": "[15]; [19]", "result": 0}, {"measurement": "Corn plant response rating", "setting": "[15]; [20]", "result": 0}, {"measurement": "Plant response rating, Corn", "setting": "[15]; [21]", "result": 2}, {"measurement": "Plant response rating, Corn", "setting": "[15]; [22]", "result": 2}, {"measurement": "Corn plant response rating", "setting": "[15]; [23]", "result": 0}]}]}
